Each block holds one compound with its values, some of them ahead of it.
Assays:
dopamine rD3 receptor = dopamine rD3 receptor (Rattus norvegicus, UniProt P19020); settings: ratio of Ki D2L to Ki D3
dopamine hD3 receptor = dopamine hD3 receptor (Homo sapiens, UniProt P35462); experiment: Stimulation of [35S]GTPγS binding, hD3 receptors expressed in CHO cells; assay type: biochemical; settings: read-out: %Emax, CHO-D3
6-OHDA lesioned rats = experiment: Rotational experiment with 6-OHDA lesioned rats; assay type: in vivo, rat

dopamine rD3 receptor, sequence (P19020 whole entry): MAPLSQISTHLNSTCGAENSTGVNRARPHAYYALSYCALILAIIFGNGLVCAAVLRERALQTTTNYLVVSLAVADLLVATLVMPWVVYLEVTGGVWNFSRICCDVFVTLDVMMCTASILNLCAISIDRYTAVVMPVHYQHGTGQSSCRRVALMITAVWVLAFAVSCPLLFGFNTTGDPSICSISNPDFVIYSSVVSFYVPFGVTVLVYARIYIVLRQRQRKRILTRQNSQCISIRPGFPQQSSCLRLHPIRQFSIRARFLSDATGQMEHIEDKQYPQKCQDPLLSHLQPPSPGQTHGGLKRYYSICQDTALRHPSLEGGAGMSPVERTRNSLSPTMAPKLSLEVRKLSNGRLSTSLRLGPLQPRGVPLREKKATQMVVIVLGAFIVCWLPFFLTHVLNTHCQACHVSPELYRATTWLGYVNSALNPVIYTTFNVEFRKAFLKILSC
dopamine hD3 receptor, sequence (P35462 whole entry): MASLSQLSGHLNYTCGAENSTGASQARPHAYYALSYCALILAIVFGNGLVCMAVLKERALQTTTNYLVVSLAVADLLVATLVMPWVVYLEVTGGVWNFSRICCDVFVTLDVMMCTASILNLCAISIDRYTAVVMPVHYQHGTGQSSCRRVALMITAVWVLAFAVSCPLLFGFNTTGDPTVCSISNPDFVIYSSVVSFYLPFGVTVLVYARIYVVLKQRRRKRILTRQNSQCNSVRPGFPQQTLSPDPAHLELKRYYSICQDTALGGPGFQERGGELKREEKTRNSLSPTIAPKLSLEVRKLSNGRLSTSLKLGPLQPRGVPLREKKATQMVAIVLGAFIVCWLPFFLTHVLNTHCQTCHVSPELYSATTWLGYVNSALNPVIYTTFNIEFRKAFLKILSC

D2L/D3 (dopamine rD3 receptor): 15.4
Structure (SMILES): CCCN(CCN1CCN(Cc2ccc(O)c3ncccc23)CC1)C1CCc2ccc(O)cc2C1 (centres unmarked) [Compound 12a, 5-((4-(2-((7-hydroxy-1,2,3,4-tetrahydronaphthalen-2-yl)(propyl)amino)ethyl)piperazin-1-yl)methyl) quinolin-8-ol]

D2L/D3 (dopamine rD3 receptor): 11.2
Structure (SMILES): CCCN(CCN1CCN(Cc2ccc(O)c3ncccc23)CC1)C1CCc2c(O)cccc2C1 (centres unmarked) [Compound 12b, 5-((4-(2-((5-hydroxy-1,2,3,4-tetrahydronaphthalen-2-yl)(propyl)amino)ethyl)piperazin-1-yl)methyl)quinolin-8-ol]

Structure (SMILES): CCCN(CCC)CCc1cccc2c1CC(=O)N2 [Ropinirole]
Emax (dopamine hD3 receptor): 66.6 ± 8.1%
rotational activity (6-OHDA lesioned rats; 5 µMol/kg): much less rotations with shorter duration of action

Structure (SMILES): CN1CCc2cccc3c2[C@H]1Cc1ccc(O)c(O)c1-3 [apomorphine]
average rotation (contralateral) (6-OHDA lesioned rats; 0.05 mg/kg, 21 days post lesion, recorded for 30 min, four rats): > 250

Reference: PMC2844127 (Journal of medicinal chemistry, 2010)
